# From US4704403A, “3-(2,2,2-trisubstituted hydrazinium) propionates” (priority 1983, dated 1987)
# Experiments:
# [1] = system: hypertensive male rats of the Akamoto-Aoki line; test: Variation of arterial pressure upon intraperitoneal administration to hypertensive rats; type: in vivo
# Method: The study of hypotensive properties of the compounds of this invention has been carried out of hypertensive male rats of the Akamoto-Aoki line aged 25-30 weeks. The animals were divided into groups (7-10 rats in each) and for 2 weeks before the beginning of the experiment they were subjected to an every-day training for adaptation to the unit for measurements of the arterial pressure. The systolic and diastolic arterial pressure were measured indirectly on the tail artery. The level of the arterial pressure prior to administration of the test compounds was measured by way of a triple determination thereof--2 days, one day and right before the administration of the preparation. The compounds were administered intraperitoneally in the form of a 2.5% aqueous solution or a 2.5% suspension in Twin-80 in the dose of 50 mg/kg. The measurement of the arterial pressure was effected 30 minutes, 1, 2, 3 and 4 hours and in some cases 24 hours after the administration of the preparation. For a number of compounds featuring a high efficiency, also determined was the dose causing reduction of the arterial pressure by 30% as compared with the starting level (ED30). The statistical processing of the data obtained was carried out using the Student certainty criterion.
# [2] = system: spontaneously hypertensive rats of the Akamoto-Aoki line; test: Systolic arterial pressure of spontaneously hypertensive rats upon a repeated peroral administration; type: in vivo
# Method: Thus, after a four-days course of administration (once a day, per os) of the compounds according to the present invention an essential reduction of the arterial pressure in the test animals is observed which is not returned to the initial level even an expiration of four days after discontinuation of the preparation administration, whereas the hypotensive effect of nifedipine is manifested for only 8 hours.
# [3] = system: white mice; test: Acute toxicity upon intraperitoneal administration to white mice; type: in vivo; settings: i.p.
# Method: (§1) The acute toxicity of the compounds according to the present invention was studied on white mice of both sexes with a mass of 20-25 g. A saturated aqueous solution of the compounds or a suspension in Tween-80 was administered to the animals intraperitoneally. The observation over the animals was carried out for 14 days. The results obtained were processed following the Litchfield-Wilkoxon method. As it follows from the data shown in Table 5 hereinbelow, the studied compounds have a very low acute toxicity, thus providing a large spectrum of the therapeutic effect.
# [4] = as above; type: in vivo; settings: mouse, in vivo, ip, 14 days observation, average values with confidential limits at P=0.05
# Method: as §1
# [5] = system: spontaneously hypertensive rats of the Akamoto-Aoki line; test: Hypotensive activity on spontaneously hypertensive rats at a single peroral administration; type: in vivo; settings: for Systolic arterial pressure: ethyl 40 mg/kg (initial 198), benzyl 40 mg/kg (initial 196)
# [6] = system: arrhythmia caused by introduction of calcium chloride; test: Antiarrhythmic activity on the model of arrhythmia caused by calcium chloride (antagonism towards calcium); type: in vivo, mice; settings: for Dose of calcium chloride causing arrhythmia: control 85.0; for Dose of calcium chloride causing heart arrest: control 100.0
# Method: In experiments on white mice with a mass of 18-25 g narcotized with urethane an electrocardiogram was recorded in the second standard lead. A 2% solution of calcium chloride was introduced into the tail vein at a constant rate (0.01 ml for 2 seconds). The dose of calcium chloride causing arrhythmia and the dose causing heart arrest were determined. In experimental groups the test compounds were administered 20-40 minutes prior to the beginning of the experiment intraperitoneally.
# [7] = system: adrenaline-caused arrhythmia; test: Adrenaline-caused arrhythmia in narcotized guinea pigs; type: in vivo; settings: for ED50: Cavia porcellus, iv, intravenously, dose giving antiarrhythmic effect in 50% of the experiments
# Method: A further study of the antiarrhythmic activity of the compounds according to the present invention was connected with the determination of their effect on experimental arrhythmia induced by adrenaline.
# Guinea pigs of both sexes with a mass of 400-700 g were narcotized with urethane (1,500 mg/kg intraperitoneally) The standard second-lead electrocardiogram was recorded. Arrhythmia was caused by a rapid injection (intravenously) of adrenaline in the dose of […]. To find out the protective antiarrhythmia effect of the compounds according to the present invention, the number of animals in which the total number of ectopic contractions was reduced by 50% and more as compared to the control experiments was recorded. […] The results obtained in this study of the antiarrhythmic properties of some of the compounds according to the present invention and novocainamide on the adrenaline model of arrhythmia are shown in Table 7.
# [8] = 30 minutes, 50 mg/kg i.p. (nifedipine 1 mg/kg i.p.)
# [9] = 1 hour, 50 mg/kg i.p. (nifedipine 1 mg/kg i.p.)
# [10] = 2 hours, 50 mg/kg i.p. (nifedipine 1 mg/kg i.p.)
# [11] = 4 hours, 50 mg/kg i.p. (nifedipine 1 mg/kg i.p.)
# [12] = after four-days p.o. course, benzyl 40 mg/kg, allyl 50 mg/kg, nifedipine dose not given
# [13] = p.o. once a day, benzyl 40 mg/kg, allyl 50 mg/kg, nifedipine dose not given
# [14] = p.o., benzyl 40 mg/kg, allyl 50 mg/kg, nifedipine dose not given
# [15] = 1 hour after single p.o., ethyl 40 mg/kg, benzyl 40 mg/kg
# [16] = 3 hours after single p.o., allyl 50 mg/kg (initial 184)
# [17] = 3 hours after single p.o., ethyl 40, allyl 50, benzyl 40 mg/kg
# [18] = 5 hours after single p.o., allyl 50 mg/kg (initial 184)
# [19] = 5 hours after single p.o., ethyl 40, allyl 50, benzyl 40 mg/kg
# [20] = 24 hours after single p.o., allyl 50 mg/kg (initial 184)
# [21] = 24 hours after single p.o., ethyl 40, allyl 50, benzyl 40 mg/kg
smiles,measurement,setting,value
"C[N+](C)(Cc1ccccc1)NCCC(=O)[O-] [3-(2,2-dimethyl-2-benzylhydrazinium)propionate]",Average variation of the diastolic arterial pressure,[1]; [8],-14 % of the initial
same,Average variation of the systolic arterial pressure,[1]; [8],-14 % of the initial
same,Average variation of the diastolic arterial pressure,[1]; [9],-14 % of the initial
same,Average variation of the systolic arterial pressure,[1]; [9],-14 % of the initial
same,Average variation of the diastolic arterial pressure,[1]; [10],-21 % of the initial
same,Average variation of the systolic arterial pressure,[1]; [10],-15 % of the initial
same,Average variation of the diastolic arterial pressure,[1]; [11],-21 % of the initial
same,Average variation of the systolic arterial pressure,[1]; [11],-14 % of the initial
same,Average variation of the diastolic arterial pressure,"[1]; 24 hours, 50 mg/kg i.p.",-15 % of the initial
same,Average variation of the systolic arterial pressure,"[1]; 24 hours, 50 mg/kg i.p.",-9 % of the initial
same,"Systolic arterial pressure, 5th day",[2]; [12],166 mm Hg
same,"Systolic arterial pressure, 8th day",[2]; [12],157 mm Hg
same,"Systolic arterial pressure, 10th day",[2]; [12],177.8 mm Hg
same,"Systolic arterial pressure, 1st day after administration","[2]; p.o. once a day, benzyl 40 mg/kg (initial 195.8), allyl 50 mg/kg (initial 176.6), nifedipine dose not given (initial 184.0)",148.6 mm Hg
same,"Systolic arterial pressure, 2nd day before administration",[2]; [13],167.8 mm Hg
same,"Systolic arterial pressure, 3rd day after administration",[2]; [13],157.4 mm Hg
same,"Systolic arterial pressure, 4th day after administration",[2]; [13],155 mm Hg
same,"Systolic arterial pressure, 4th day before administration",[2]; [13],156 mm Hg
same,"Systolic arterial pressure, 3rd day before administration","[2]; p.o. once a day, benzyl 40 mg/kg, nifedipine dose not given",153 mm Hg
same,"Percent in parentheses (change of systolic pressure from initial), 1st day after administration",[2]; [14],24%
same,"Percent in parentheses (change of systolic pressure from initial), 2nd day before administration",[2]; [14],14%
same,"Percent in parentheses (change of systolic pressure from initial), 3rd day after administration",[2]; [14],20%
same,"Percent in parentheses (change of systolic pressure from initial), 4th day after administration",[2]; [14],21%
same,"Percent in parentheses (change of systolic pressure from initial), 4th day before administration",[2]; [14],20%
same,"Percent in parentheses (change of systolic pressure from initial), 5th day",[2]; [14],15%
same,"Percent in parentheses (change of systolic pressure from initial), 8th day",[2]; [14],20%
same,"Percent in parentheses (change of systolic pressure from initial), 10th day",[2]; [14],9%
same,"Percent in parentheses (change of systolic pressure from initial), 3rd day before administration","[2]; p.o., benzyl 40 mg/kg, nifedipine dose not given",22%
same,Relative toxicity with respect to quinidine (LD50 / LD50 of quinidine),[3],51.9
same,LD50 at 336 h,[4],8100 mg/kg
same,Systolic arterial pressure,[5]; 1 hour after single p.o.,155 mm Hg
same,"Systolic arterial pressure, percent in parentheses (decrease from initial)",[5]; [15],21%
same,Systolic arterial pressure,[5]; [16],150 mm Hg
same,"Systolic arterial pressure, percent in parentheses (decrease from initial)",[5]; [17],23%
same,Systolic arterial pressure,[5]; [18],153 mm Hg
same,"Systolic arterial pressure, percent in parentheses (decrease from initial)",[5]; [19],22%
same,Systolic arterial pressure,[5]; [20],168 mm Hg
same,"Systolic arterial pressure, percent in parentheses (decrease from initial)",[5]; [21],14%
same,Dose of calcium chloride causing arrhythmia,[6]; compound dose 5 mg/kg i.p.,90.9
same,Dose of calcium chloride causing heart arrest,[6]; compound dose 5 mg/kg i.p.,103.0
same,Dose of calcium chloride causing arrhythmia,[6]; compound dose 25 mg/kg i.p.,111.0
same,Dose of calcium chloride causing heart arrest,[6]; compound dose 25 mg/kg i.p.,112.0
"CC[N+](C)(C)NCCC(=O)[O-] [3-(2,2-dimethyl-2-ethylhydrazinium)propionate monohydrate]",Efficiency (animals with ectopic contractions reduced by 50% and more),[7]; 3.0 mg/kg intravenously,1/4
same,Efficiency (animals with ectopic contractions reduced by 50% and more),[7]; 10.0 mg/kg intravenously,2/4
same,Efficiency (animals with ectopic contractions reduced by 50% and more),[7]; 20.0 mg/kg intravenously,4/5
same,ED50,[7],8.2 mg/kg
same,Average variation of the diastolic arterial pressure,[1]; [8],-2 % of the initial
same,Average variation of the systolic arterial pressure,[1]; [8],-5 % of the initial
same,Average variation of the diastolic arterial pressure,[1]; [9],-17 % of the initial
same,Average variation of the systolic arterial pressure,[1]; [9],-11 % of the initial
same,Average variation of the diastolic arterial pressure,[1]; [10],-22 % of the initial
same,Average variation of the systolic arterial pressure,[1]; [10],-13 % of the initial
same,Average variation of the diastolic arterial pressure,[1]; [11],-23 % of the initial
same,Average variation of the systolic arterial pressure,[1]; [11],-18 % of the initial
same,Average variation of the diastolic arterial pressure,"[1]; 24 hours, 50 mg/kg i.p.",-25 % of the initial
same,Average variation of the systolic arterial pressure,"[1]; 24 hours, 50 mg/kg i.p.",-18 % of the initial
same,Relative toxicity with respect to quinidine (LD50 / LD50 of quinidine),[3],14.7
same,LD50 at 336 h,[4],2300 mg/kg
same,Systolic arterial pressure,[5]; 1 hour after single p.o.,185 mm Hg
same,"Systolic arterial pressure, percent in parentheses (decrease from initial)",[5]; [15],7%
same,Systolic arterial pressure,[5]; [16],190 mm Hg
same,"Systolic arterial pressure, percent in parentheses (decrease from initial)",[5]; [17],4%
same,Systolic arterial pressure,[5]; [18],193 mm Hg
same,"Systolic arterial pressure, percent in parentheses (decrease from initial)",[5]; [19],3%
same,Systolic arterial pressure,[5]; [20],191 mm Hg
same,"Systolic arterial pressure, percent in parentheses (decrease from initial)",[5]; [21],4%
same,Dose of calcium chloride causing arrhythmia,[6]; compound dose 5 mg/kg i.p.,83.0
same,Dose of calcium chloride causing heart arrest,[6]; compound dose 5 mg/kg i.p.,95.0
same,Dose of calcium chloride causing arrhythmia,[6]; compound dose 25 mg/kg i.p.,91.0
same,Dose of calcium chloride causing heart arrest,[6]; compound dose 25 mg/kg i.p.,98.0
"C[N+](C)(CCc1ccccc1)NCCC(=O)[O-] [3-(2,2-dimethyl-2-phenylethylhydrazinium)propionate dihydrate]",Efficiency (animals with ectopic contractions reduced by 50% and more),[7]; 10.0 mg/kg intravenously,3/5
same,Efficiency (animals with ectopic contractions reduced by 50% and more),[7]; 20.0 mg/kg intravenously,4/5
same,ED50,[7],7.8 mg/kg
same,Relative toxicity with respect to quinidine (LD50 / LD50 of quinidine),[3],11.8
same,LD50 at 336 h,[4],1850 mg/kg
same,Dose of calcium chloride causing arrhythmia,[6]; compound dose 5 mg/kg i.p.,88.7
same,Dose of calcium chloride causing heart arrest,[6]; compound dose 5 mg/kg i.p.,115.6
same,Dose of calcium chloride causing arrhythmia,[6]; compound dose 15 mg/kg i.p.,110.5
same,Dose of calcium chloride causing heart arrest,[6]; compound dose 15 mg/kg i.p.,142.5
"CCN(CC)CCNC(=O)c1ccc(N)cc1 [Novocainamide, reference compound]",Efficiency (animals with ectopic contractions reduced by 50% and more),[7]; 2.5 mg/kg intravenously,1/5
same,Efficiency (animals with ectopic contractions reduced by 50% and more),[7]; 5.0 mg/kg intravenously,1/5
same,Efficiency (animals with ectopic contractions reduced by 50% and more),[7]; 10.0 mg/kg intravenously,3/5
same,Efficiency (animals with ectopic contractions reduced by 50% and more),[7]; 20.0 mg/kg intravenously,5/5
same,ED50,[7],7.6 mg/kg
same,Relative toxicity with respect to quinidine (LD50 / LD50 of quinidine),[3],1.85
same,LD50 at 336 h,[4],290 mg/kg
same,Dose of calcium chloride causing arrhythmia,[6]; compound dose 10 mg/kg i.p.,116.0
same,Dose of calcium chloride causing heart arrest,[6]; compound dose 10 mg/kg i.p.,120.0
same,Dose of calcium chloride causing arrhythmia,[6]; compound dose 30 mg/kg i.p.,127.0
same,Dose of calcium chloride causing heart arrest,[6]; compound dose 30 mg/kg i.p.,138.0
